System: p62 aggregates in HEK cells
Experiment: p62 aggregate formation by confocal/fluorescence microscopy in transfected HEK cells
Assay type: cell-based, Human
Procedure: Immunofluorescence staining—All steps were done at room temperature unless stated otherwise. The inclusion bodies were placed on poly-L-lysine coated 12 well slides (Cel-line/Erie Scientific Co., Portmouth, N.H.) and let partially dry. Inclusion bodies on the slides were fixed for 10 min in 3% paraformaldehyde (Electron Microscopy Sciences, Fort Washington, Pa.) and permeabilized with 0.1% Triton X-100 in PBS for 15 minutes. The inclusion bodies were incubated in blocking buffer (3% non fat dry milk in PBS) for 1 h, prior to incubation with primary antibodies at 4° C. overnight. After washing with PBS, the secondary antibody (Molecular Probes Inc., Eugene, Oreg.) in blocking buffer was applied for 1 h. After extensive washing in PBS, the samples were mounted using Vectashield (Vector Laboratories Inc., Burlingame, Calif.). The cells were fixed with 3% paraformaldehyde and processed similar to that of inclusion staining.
Cells were incubated with rabbit anti-myc IgG or mouse anti-HA IgG and labeled with Texas Red-conjugated anti-rabbit antibodies (red) or Oregon Green-conjugated anti-mouse antibodies (green), respectively. Merged images with overlapping immunoreactivity are shown in yellow. Note that cells expressing p62 lacking its UBA domain (p62ΔUBA) fail to form aggregates or to colocalize with ubiquitin. All experiments were replicated three independent times with similar results. Small aggregates of p62 colocalized with ubiquitin which was dependant upon the presence of a UBA domain but not the N-terminal portion of p62. Aggregation may impair the proteasome or, alternatively, impaired proteasome activity may seed aggregates. Alternatively, impairment of the proteasome may enhance the formation of p62 aggregates containing polyubiquitin.
In summary, through its UBA domain, p62 Interacts with polyubiquitinated substrates, and the UBA domain is necessary for aggregate formation.
Since TRAF6 localized to the large aggregates along with polyubiquitin (FIG. 2B), these aggregates may represent the failed attempt of the cell to rid itself of TRAF6-K63-polyubiquitinated substrates sequestered through interaction with the UBA domain. […] Altogether, these findings reveal that p62 binds proteins with K63 chains through its UBA domain and that p62 aggregates sequester TRAF6 as well as K63-polyubiquitinated substrates.
To further determine if the coassociation of tau-p62-TRAF6 and UbcH7 could be recapitulated in vitro, a cotransfection approach was undertaken. […] HEK cells were transfected with GFP-p62 followed by treatment or not with Aβ1-42 and Aβ42-1 peptides. […] This is consistent with the observation that microtubule dependent transport is important for the formation of p62 inclusions as assessed by treatment of the cells with nocodazole, a microtubule disrupting agent (9).

## AAVALLPAVLLALLAP-ESASGPSEDPSVNFLK (AAVALLPAVLLALLAPESASGPSEDPSVNFLK; artificial sequence for cell permeable peptide) [TRAF6 peptide]
Pretreatment with inhibitory dose of peptide prior to ALLN, GFP-p62 HEK cells
  reduction in the formation of large aggregates: 60%
Pretreatment with peptide prior to ALLN (FIG. 2D), control peptide data not shown
  effect on size of the p62 aggregates: decrease in the size of the p62 aggregates

— patent US7491501B2, “Methods for identifying modulators of intracellular aggregate formation” (Auburn University, priority 2003, dated 2009)
